{"source": "patent US20060276462A1", "about": "“Method of treating cognitive decline due to sleep deprivation and stress” (priority 2003, published 2006)", "key": {"[1]": {"test_system": "sleep deprived non-human primates", "test": "Delayed Match To Sample (DMTS) task after sleep deprivation", "assay_type": "in vivo", "settings": "for Performance on DMTS Task (% Correct ± sem): Sleep Deprivation + BCM", "text": "This task consists of a kind of “heads-up” display wherein the monkey interacts with a computer video display through motions of its hand. […] A fluorescent spot on the back of the monkey's hand is tracked by an overhead camera, and the coordinates of the hand position are proportionally translated into movement of a cursor on the video display. The animal responds to single Sample phase images by placing the cursor inside the image, then after a delay (during which the display is blanked) the animal must select the appropriate Match image (out of 2-6 different images) by placing the cursor inside the image identical to the Sample. Animal performance is scored as correct responses according to length of delay, and complexity of the trial (number of match images). Recent findings have shown that primate hippocampal neurons encode specific features of the task and stimulus, and that strength of the encoding correlates to behavioral success. Recording and on-line analysis of hippocampal neural activity allows tracking of the animal's cognitive performance under various experimental conditions. Two additional measures (eye and limb movement tracking) along with recording of movement sensitive neurons in hippocampus, putamen and motor cortex provide assessment of attention and ability to perform directed motor movements. Thus, it is possible to distinguish behavioral errors due to inattention or slow movements from those caused by inappropriate cognitive processing of the task information.\n(§1) In practice, an animal is trained in the DMTS task such that his daily performance variable is relatively constant. This is judged as baseline performance. Once a stable baseline is established, the subject is deprived of sleep for variable periods in order to establish the effect of sleep deprivation on performance. The ability of an AMPA receptor modulator to ameliorate the decline in performance in the DMTS task is assessed by administered of the test compound prior to or during testing after sleep deprivation. If the test compound is administer prior to the beginning of the test session, then the effect of the drug is compared to performance following sleep deprivation on prior or subsequent days of testing. This protocol allows for the co-administration of a metabolic tracer (such as fluorodeoxyglucose labeled with fluorine-18; FDG) so that regional brain activity can be evaluated using Positron Emission Tomography (PET). Alternatively, an intravenous administration of the test compound midway into the DMTS session allows for a within-session evaluation of drug effect."}, "AMPA receptor": {"test_system": "AMPA receptor", "settings": "cited from earlier work"}, "[2]": {"test_system": "sleep deprived non-human primates", "test": "Regional glucose utilization (FDG PET) in brain during DMTS task", "assay_type": "in vivo", "experimental": "as §1\nPositron Emission Tomography (PET) was used in order to examine the extent to which different brain regions were effected by sleep deprivation by measuring the uptake of ^18F-labeled fluorodeoxyglucose (FDG) into cells as a measure of metabolic activity. By this method it was observed that there was a general increase in metabolism across all brain regions on test days that followed sleep deprivation compared to normal baseline test days (FIG. 2).\nThe absolute values shown in FIG. 2 can be normalized to global brain metabolism (FIG. 3) by the following equation: (ROISD/GSD−ROIBL/GBL)/GBL where ROI mean region of interest, SD means under the condition of sleep deprivation, G means global and BL means under the condition of baseline performance."}}, "data": [{"molecule": "O=C(c1ccc2nccnc2c1)N1CCCCC1", "note": "[CX516, 1-(Quinoxaline-6-ylcarbonyl)piperidine]", "values": [{"measurement": "Improving performance in DMTS task", "setting": "[1]; in vivo", "value": "effective at improving performance"}]}, {"molecule": "COc1ccc(C(=O)N2CCCC2=O)cc1", "note": "[Aniracetam]", "values": [{"measurement": "Mean open time of the AMPA receptor channel", "setting": "AMPA receptor", "value": "increase the mean open time"}, {"measurement": "Amplitude of the synaptic current", "setting": "AMPA receptor; mirrored in the field EPSP", "value": "increases the amplitude"}, {"measurement": "Duration of the synaptic current", "setting": "AMPA receptor; mirrored in the field EPSP", "value": "prolongs its duration"}]}, {"molecule": "O=C(c1ccc2nonc2c1)N1CCOCC1", "note": "[BCM, 1-(Benzofurazan-5-ylcarbonyl)morpholine]", "values": [{"measurement": "Effect on the performance deficit in DMTS task caused by sleep deprivation", "setting": "[1]; 0.8 mg/kg (iv), single night of sleep deprivation", "value": "completely reversed the performance deficit"}, {"measurement": "Performance compared to baseline", "setting": "[1]; Subject 1, 0.8 mg/kg (iv) after sleep deprivation", "value": "enhanced performance compared to baseline"}, {"measurement": "Performance on DMTS Task (% Correct ± sem)", "setting": "[1]; Subject No. 1, 0.8 mg/kg (iv), baseline 81 ± 2, sleep deprivation 65 ± 1", "value": "87 ± 2", "unit": "% Correct"}, {"measurement": "Performance on DMTS Task (% Correct ± sem)", "setting": "[1]; Subject No. 2, 0.8 mg/kg (iv), baseline 81 ± 2, sleep deprivation 67 ± 4", "value": "83 ± 3", "unit": "% Correct"}, {"measurement": "Latencies to respond in the Match phase", "setting": "[1]; drug administration after sleep deprivation, FIG. 1", "value": "not effected"}, {"measurement": "Metabolism (absolute uptake of FDG) in all brain regions", "setting": "[2]; BCM following sleep deprivation, compared to vehicle administration, FIG. 2", "value": "reduced compared to vehicle administration"}, {"measurement": "Metabolism (uptake of FDG) in several brain regions relative to normal", "setting": "[2]; BCM following sleep deprivation, FIG. 2", "value": "near normal levels"}, {"measurement": "Energy demand of the brain to perform the DMTS task (FDG uptake normalized to global brain metabolism)", "setting": "[2]; FIG. 3, normalized data", "value": "reduction in energy demand"}]}]}
